The text below walks through data of US9017700B2, “Production of a viable, storable worm egg suspension” (Dr. Falk Pharma GmbH, priority 2008, dated 2015).

The subject of data set [1] is Aspergillus niger. Kind of data set: Colony number in TSO samples at pH 4 with preservatives. As to conditions: 10 000 TSO/ml in phosphate buffer pH 4, 25° C.; for T 1d: 1 day; for T 7d: 7 days. Type of data set: cell-based. The protocol: (§1) Raising the pH from pH 2 to pH 4 and addition of preservatives Experimental conditions for examples 4a to 4e: […] The following microorganisms were added to the test samples: • Aspergillus niger in the form of an individual microorganism • Pseudomonas aruginosa, Staphylococcus aureus, Candida albicans and Escherichia coli in combination. The incubation temperature was 25° C. The test plates were evaluated after 1 to 7 days.

Data set [2] relates to Candida albicans. The data set is described as above. Format: cell-based. As to conditions: 10 000 TSO/ml in phosphate buffer pH 4, 25° C.; for T 1d: 1 day; for T 7d: 7 days. The method, then:
as §1

The subject of data set [3] is Escherichia coli. Described as above. As to conditions: 10 000 TSO/ml in phosphate buffer pH 4, 25° C.; for T 1d: 1 day; for T 7d: 7 days. Format: cell-based. The method, then: as §1
A further data set has as its system Psuedomonas aeruginosa. The data set is described as above. Type of data set: cell-based. As to conditions: 10 000 TSO/ml in phosphate buffer pH 4, 25° C.; for T 1d: 1 day; for T 7d: 7 days. The protocol: as §1
Another data set concerns Staphylococcus aureus. The data set is described as above. As to conditions: 10 000 TSO/ml in phosphate buffer pH 4, 25° C.; for T 1d: 1 day; for T 7d: 7 days. Format: cell-based. The protocol: as §1
In a further data set the test system is Penicillium brevicomp. The data set can be described thus: Microbial count after H2SO4 treatment of inoculated nutrient suspension (test molds). Type of data set: cell-based.
The test system of data set [4] is Aspergillus niger. Described as above. Type of data set: cell-based.
The next data set deals with Saccharomyces cer. Kind of data set: Microbial count after H2SO4 treatment of inoculated nutrient suspension (test yeasts). Type of data set: cell-based.
The subject of data set [5] is Candida albicans. Described as above. Type of data set: cell-based.
For data set [6], the system named is microorganisms in Trichuris suis egg suspension (TSO). Kind of data set: Depletion of microorganisms in a T. suis egg suspension (microbial count per DAB 2.6.12). Type of data set: cell-based. The settings on record: TSO 2400 eggs/ml rebuffered to pH 2; after storage for 3 h at 30° C. The protocol:
The microbial count in a Trichuris suis egg suspension (TSO) in phosphate buffer (pH 7) at a concentration of 2400 eggs/ml was determined as specified in the DAB (German Pharmacopoeia, section 2.6.12, last updated with the 24th Supplement in 2006). […] This suspension was then rebuffered to pH 2 in dilute H2SO4 solution.

In the next data set the test system is Clostridium sporog. The data set can be described thus: Microbial count after H2SO4 treatment of inoculated nutrient suspension (test bacteria). The settings on record: pH 2, 6 h at 30° C. Format: cell-based.
Data set [7] relates to murine leukemia virus (MuLV). Type of data set: cell-based. As to conditions: pH 2, 30° C., with TSO; after 10 min.
The next data set deals with pseudorabies virus (PRV). Format: cell-based. The settings on record: pH 2, 30° C., with TSO; after 10 min.
For the next data set, the system named is porcine parvovirus (PPV). Format: cell-based. The settings on record: pH 2, 30° C., with TSO; after 3 h.
The test system of the next data set is feline calicivirus (FCV). Type of data set: cell-based. The settings on record: pH 2, 30° C., with TSO; after 3 h.
A further data set deals with Bacillus subtilis. Kind of data set: Microbial count after H2SO4 treatment of inoculated nutrient suspension (test bacteria). The settings on record: pH 2, 6 h at 30° C.
Data set [8] concerns Escherichia coli. Described as above. As to conditions: pH 2, 6 h at 30° C.
The subject of another data set is Staphylococus aureus. The data set is described as above. As to conditions: pH 2, 6 h at 30° C.
The next data set deals with Salmonella typhymurium. The description is as above. The settings on record: pH 2, 6 h at 30° C.

Marks after values point to notes of the source that are not given here.

With `O=C(O)c1ccccc1` [Benzoic acid 0.2%, Benzoic acid], the “T 1d” value is reported as 90 cfu/ml in the data set with Aspergillus niger [1]; under 10 cfu/ml in the data set with Candida albicans [2]; under 10 cfu/ml in the data set on Escherichia coli [3]; under 10 cfu/ml with Psuedomonas aeruginosa; under 10 cfu/ml in the data set on Staphylococcus aureus. The “T 7d” value with Aspergillus niger [1], with Candida albicans [2], with Escherichia coli [3], in the data set with Psuedomonas aeruginosa and in the data set with Staphylococcus aureus was under 10 cfu/ml each time. In addition, the “T 0” value with Aspergillus niger [1] was 120 000 cEu/ml; with Candida albicans [2], 240 000 cfu/ml; with Escherichia coli [3], 140 000 cfu/ml; with Psuedomonas aeruginosa, 180 000 cfu/ml; with Staphylococcus aureus, 130 000 cfu/ml.
As to `O=S(=O)(O)O` [H2SO1 pH 0, H2SO4], the “microbial count T3h H2SO1 pH 0” value with Penicillium brevicomp. (pH 0, 3 h at 25° C.) is on record as 70 cfu; in the data set with Aspergillus niger [4] (pH 0, 3 h at 25° C.), 50 cfu. The “microbial count T48h H2SO1 pH 0” value in the data set on Penicillium brevicomp. (pH 0, 48 h at 25° C.) is under 10 cfu; in the data set on Aspergillus niger [4] (pH 0, 48 h at 25° C.), under 10 cfu.
On to `O=S(=O)(O)O` [H2SO4 pH 1, H2SO4], for which the “microbial count T3h H2SO4 pH 1” value with Saccharomyces cer. (pH 1, 3 h at 25° C.) is listed as 39 000 cfu; in the data set with Candida albicans [5] (pH 1, 3 h at 25° C.), 26 000 cfu; in the data set on Penicillium brevicomp. (pH 1, 3 h at 25° C.), 39 000 cfu; with Aspergillus niger [4] (pH 1, 3 h at 25° C.) it was 500 000 cfu. Moreover, the “microbial count T48h H2SO4 pH 1” value was 40* cfu with Saccharomyces cer. (pH 1, 48 h at 25° C.); under 10 cfu with Candida albicans [5] (pH 1, 48 h at 25° C.); 14 000 cfu in the data set with Penicillium brevicomp. (pH 1, 48 h at 25° C.); 500 000 cfu in the data set on Aspergillus niger [4] (pH 1, 48 h at 25° C.).
In data set [6], `O=S(=O)(O)O` [H2SO4 pH 2, H2SO4] returned a microbial count of under 20 cfu/ml. Also, the “microbial count, H2SO4 pH 2 after 6 h” value in the data set on Clostridium sporog. was under 10 colony-forming units; in the data set on Bacillus subtilis it was 20* colony-forming units; with Escherichia coli [8], under 10 colony-forming units; in the data set with Staphylococus aureus it was under 10 colony-forming units; in the data set on Salmonella typhymurium it was under 10 colony-forming units. The “microbial count T3h H2SO4 pH 2” value is listed as 380 000 cfu in the data set with Saccharomyces cer. (pH 2, 3 h at 25° C.); 380 000 cfu in the data set with Candida albicans [5] (pH 2, 3 h at 25° C.); 90 000 cfu in the data set on Penicillium brevicomp. (pH 2, 3 h at 25° C.); 370 000 cfu with Aspergillus niger [4] (pH 2, 3 h at 25° C.). Besides, the “microbial count T48h H2SO4 pH 2” value with Saccharomyces cer. (pH 2, 48 h at 25° C.) is listed as 220 000 cfu; with Candida albicans [5] (pH 2, 48 h at 25° C.), 32 000 cfu; in the data set with Penicillium brevicomp. (pH 2, 48 h at 25° C.), 32 000 cfu; in the data set with Aspergillus niger [4] (pH 2, 48 h at 25° C.) it was 700 000 cfu. Besides, the viral activity result (in data set [7]; in the data set on pseudorabies virus (PRV); with porcine parvovirus (PPV); in the data set on feline calicivirus (FCV)) was “no longer infectious” each time.
Regarding `CC(O)CO` (stereo not shown) [Propylene glycol 15%, Propylene glycol], the “T 1d” value in the data set with Aspergillus niger [1] is reported as 30 000 cfu/ml; with Candida albicans [2], 8600 cfu/ml; with Escherichia coli [3] it was 7100 cfu/ml; with Psuedomonas aeruginosa, 10 cfu/ml; in the data set on Staphylococcus aureus, 14 000 cfu/ml. The “T 7d” value in the data set on Aspergillus niger [1] was 9000 cfu/ml; in the data set on Candida albicans [2] it was 30 cfu/ml; with Escherichia coli [3], under 10 cfu/ml; with Psuedomonas aeruginosa, under 10 cfu/ml; in the data set on Staphylococcus aureus, under 10 cfu/ml. Also, the “T 0” value in the data set on Aspergillus niger [1] was 120 000 cEu/ml; in the data set on Candida albicans [2], 240 000 cfu/ml; with Escherichia coli [3], 140 000 cfu/ml; in the data set on Psuedomonas aeruginosa, 180 000 cfu/ml; in the data set on Staphylococcus aureus, 130 000 cfu/ml.
As for `C/C=C/C=C/C(=O)O` [Sorbic acid 0.1%, Sorbic acid], the “T 1d” value is on record as 20 000 cfu/ml in the data set on Aspergillus niger [1]; 190 cfu/ml in the data set with Candida albicans [2]; 490 cfu/ml in the data set on Escherichia coli [3]; 30 cfu/ml in the data set on Psuedomonas aeruginosa; 240 cfu/ml with Staphylococcus aureus. The “T 7d” value in the data set on Aspergillus niger [1], in the data set on Candida albicans [2], in the data set on Escherichia coli [3], with Psuedomonas aeruginosa and in the data set with Staphylococcus aureus was under 10 cfu/ml each time. For the same compound, the “T 0” value in the data set on Aspergillus niger [1] is 120 000 cEu/ml; in the data set with Candida albicans [2], 240 000 cfu/ml; in the data set on Escherichia coli [3] it was 140 000 cfu/ml; in the data set with Psuedomonas aeruginosa, 180 000 cfu/ml; in the data set with Staphylococcus aureus it was 130 000 cfu/ml.
On to `[K+].[K+].[O]=[Cr](=[O])([O-])[O][Cr](=[O])(=[O])[O-]` [potassium dichromate], for which the cytotoxicity entry with indicator cells is given as “cytotoxicity”.
